Results on twelve compounds are retold here after US10150757B2, “Quinazolinone derivatives as PARP inhibitors” (Janssen Pharmaceutica NV, priority 2004, dated 2018).

Data set [1] concerns the target PARP-1 enzyme (Homo sapiens, UniProt P09874). The experiment in a line: In vitro scintillation proximity assay (SPA) for PARP-1 inhibitory activity. It is filed as biochemical. The note with it: [3H]-NAD+, biotinylated histones, nicked DNA; read-out: in vitro SPA assay PARP-1 pIC50 (converted). As to the method: In Vitro Scintillation Proximity Assay (SPA) for PARP-1 Inhibitory Activity
Compounds of the present invention were tested in an in vitro assay based on SPA technology (proprietary to Amersham Pharmacia Biotech).
In principle, the assay relies upon the well established SPA technology for the detection of poly(ADP-ribosyl)ation of biotinylated target proteins, i.e histones. This ribosylation is induced using nicked DNA activated PARP-1 enzyme and [^3H]-nicotinamide adenine dinucleotide ([^3H]-NAD^+) as ADP-ribosyl donor.
As inducer of PARP-1 enzyme activity, nicked DNA was prepared. For this, 25 mg of DNA (supplier: Sigma) was dissolved in 25 ml DNAse buffer (10 mM Tris-HCl, pH 7.4; 0.5 mg/ml Bovine Serum Albumine (BSA); 5 mM MgCl2.6H2O and 1 mM KCl) to which 50 μl DNAse solution (1 mg/ml in 0.15M NaCl) was added. After an incubation of 90 min. at 37° C., the reaction was terminated by adding 1.45 g NaCl, followed by a further incubation at 58° C. for 15 min. The reaction mixture was cooled on ice and dialysed at 4° C. for respectively 1.5 and 2 hours against 1.5 l of 0.2M KCl, and twice against 1.5 l of 0.01M KCl for 1.5 and 2 h respectively. The mixture was aliquoted and stored at −20° C. Histones (1 mg/ml, type II-A, supplier: Sigma) were biotinylated using the biotinylation kit of Amersham and stored aliquoted at −20° C. A stock solution of 100 mg/ml SPA poly(vinyl toluene) (PVT) beads (supplier: Amersham) was made in PBS. A stock solution of [^3H]-NAD^+ was made by adding 120 μl of [^3H]-NAD^+ (0.1 mCi/ml, supplier: NEN) to 6 ml incubation buffer (50 mM Tris/HCl, pH 8; 0.2 mM DTT; 4 mM MgCl2). A solution of 4 mM NAD^+ (supplier: Roche) was made in incubation buffer (from a 100 mM stock solution in water stored at −20° C.). The PARP-1 enzyme was produced using art known techniques, i.e. cloning and expression of the protein starting from human liver cDNA. Information concerning the used protein sequence of the PARP-1 enzyme including literature references can be found in the Swiss-Prot database under primary accession number P09874. Biotinylated histones and PVT-SPA beads were mixed and pre-incubated for 30 min. at room temperature. PARP-1 enzyme (concentration was lot dependent) was mixed with the nicked DNA and the mixture was pre-incubated for 30 min. at 4° C. Equal parts of this histones/PVT-SPA beads solution and PARP-1 enzyme/DNA solution were mixed and 75 μl of this mixture together with 1 μl of compound in DMSO and 25 μl of [^3H]-NAD^+ was added per well into a 96-well microtiterplate. The final concentrations in the incubation mixture were 2 μg/ml for the biotinylated histones, 2 mg/ml for the PVT-SPA beads, 2 μg/ml for the nicked DNA and between 5-10 μg/ml for the PARP-1 enzyme. After incubation of the mixture for 15 min. at room temperature, the reaction was terminated by adding 100 μl of 4 mM NAD^+ in incubation buffer (final concentration 2 mM) and plates were mixed.
The beads were allowed to sediment for at least 15 min. and plates transferred to a TopCountNXT™ (Packard) for scintillation counting, values were expressed as counts per minute (cpm). For each experiment, controls (containing PARP-1 enzyme and DMSO without compound), a blank incubation (containing DMSO but no PARP-1 enzyme or compound) and samples (containing PARP-1 enzyme and compound dissolved in DMSO) were run in parallel. All compounds tested were dissolved and eventually further diluted in DMSO. In first instance, compounds were tested at a concentration of 10^−5M. […] In each test, the blank value was subtracted from both the control and the sample values. The control sample represented maximal PARP-1 enzyme activity. For each sample, the amount of cpm was expressed as a percentage of the mean cpm value of the controls. […] Herein the effects of test compounds are expressed as pIC50 (the negative log value of the IC50-value).

Data set [2] has as its system ischemia and reperfusion of the heart. Conditions: rabbits, cited from earlier work.
Data set [3] concerns colitis. The note with it: rats, colitis by intraluminal trinitrobenzene sulfonic acid in 50% ethanol; cited from earlier work.
Data set [4] deals with T1, TANK-2 enzyme (Homo sapiens, UniProt Q9H2K2).
T1 construct: made in house
T1 sequence (Q9H2K2 1-1166): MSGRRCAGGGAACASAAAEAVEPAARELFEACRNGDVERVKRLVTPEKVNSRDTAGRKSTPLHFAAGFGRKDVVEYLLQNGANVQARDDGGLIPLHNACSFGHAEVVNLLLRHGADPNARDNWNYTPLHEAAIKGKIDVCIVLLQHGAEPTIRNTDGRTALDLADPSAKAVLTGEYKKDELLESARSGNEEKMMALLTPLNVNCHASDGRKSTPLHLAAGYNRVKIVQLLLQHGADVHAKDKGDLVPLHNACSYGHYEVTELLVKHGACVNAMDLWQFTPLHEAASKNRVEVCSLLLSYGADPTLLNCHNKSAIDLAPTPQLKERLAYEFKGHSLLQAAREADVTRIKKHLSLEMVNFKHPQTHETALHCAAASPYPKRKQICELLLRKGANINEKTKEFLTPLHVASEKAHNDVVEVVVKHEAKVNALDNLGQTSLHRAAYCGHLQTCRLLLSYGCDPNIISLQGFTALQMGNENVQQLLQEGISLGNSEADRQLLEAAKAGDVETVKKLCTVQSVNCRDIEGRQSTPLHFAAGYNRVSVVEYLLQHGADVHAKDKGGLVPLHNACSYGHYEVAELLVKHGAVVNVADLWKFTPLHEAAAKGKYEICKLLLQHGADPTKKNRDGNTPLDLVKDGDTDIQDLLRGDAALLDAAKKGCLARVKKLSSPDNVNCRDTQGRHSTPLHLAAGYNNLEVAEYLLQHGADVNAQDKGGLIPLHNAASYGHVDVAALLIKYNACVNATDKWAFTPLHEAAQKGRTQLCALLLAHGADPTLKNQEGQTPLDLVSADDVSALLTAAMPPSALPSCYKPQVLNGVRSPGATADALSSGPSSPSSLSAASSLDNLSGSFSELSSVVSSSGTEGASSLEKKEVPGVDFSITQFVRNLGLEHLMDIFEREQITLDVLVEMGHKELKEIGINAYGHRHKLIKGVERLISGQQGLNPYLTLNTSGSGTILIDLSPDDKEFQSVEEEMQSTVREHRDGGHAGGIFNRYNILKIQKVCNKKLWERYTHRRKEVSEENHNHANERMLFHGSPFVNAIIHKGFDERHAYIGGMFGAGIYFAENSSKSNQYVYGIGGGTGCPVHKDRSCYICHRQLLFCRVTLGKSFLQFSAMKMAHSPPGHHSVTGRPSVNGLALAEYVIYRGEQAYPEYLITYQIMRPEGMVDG
The experiment in a line: In vitro scintillation proximity assay (SPA) for TANK-2 inhibitory activity. It is filed as biochemical. Conditions: auto-poly(ADP-ribosyl)ation; 96-well plate results if available, otherwise 384-well; read-out: in vitro SPA assay TANK-2 pIC50 (converted). As to the method:
In Vitro Scintillation Proximity Assay (SPA) for TANK-2 Inhibitory Activity
Compounds of the present invention were tested in an in vitro assay based on SPA technology with Ni Flash plates (96 or 384 well).
In principle, the assay relies upon SPA technology for the detection of auto-poly(ADP-ribosyl)ation of TANK-2 protein using [^3H]-nicotinamide adenine dinucleotide ([^3H]-NAD^+) as ADP-ribosyl donor.
A stock solution of [^3H]-NAD^+/NAD was made by adding 64.6 μl of [^3H]-NAD^+ (0.1 mCi/ml, supplier: Perkin Elmer) and 46.7 μl NAD-stock (10.7 mM, stored at −20° C., supplier Roche) to 1888.7 μl assay buffer (60 mM Tris/HCl, pH 7.4; 0.9 mM DTT; 6 mM MgCl2). The TANK-2 enzyme was produced as described in EP1238063. 60 μl of assay buffer, together with 1 μl of compound in DMSO, 20 μl of [^3H]-NAD^+/NAD and 20 μl of TANK-2 enzyme (final concentration 6 μg/ml) was added per well into a 96-well Ni-coated flash plate (Perkin Elmer). After incubation of the mixture for 120 min. at room temperature, the reaction was terminated by adding 60 μl of stop solution (42.6 mg NAD in 6 ml H2O). The plates were covered with a plate sealer and placed in a TopCountNXT™ (Packard) for scintillation counting. Values were expressed as counts per minute (cpm). For each experiment, controls (containing TANK-2 enzyme and DMSO without compound), a blank incubation (containing DMSO but no TANK-2 enzyme or compound) and samples (containing TANK-2 enzyme and compound dissolved in DMSO) were run in parallel. All compounds tested were dissolved and eventually further diluted in DMSO. In first instance, compounds were tested at a concentration of 10^−5M. […] In each test, the blank value was subtracted from both the control and the sample values. The control sample represented maximal TANK-2 enzyme activity. For each sample, the amount of cpm was expressed as a percentage of the mean cpm value of the controls. When appropriate, IC50-values (concentration of the drug, needed to reduce the TANK-2 enzyme activity to 50% of the control) were computed using linear interpolation between the experimental points just above and below the 50% level. Herein the effects of test compounds are expressed as pIC50 (the negative log value of the IC50-value). As reference compounds, 3-aminobenzamide and 4-amino-1,8-naphthalimide were included to validate the SPA assay. Herein the assay was described using 96-well plates. In the assay using 384-well plates the same final concentrations were used and volumes were adapted.
A general note: In a scintillation proximity assay essentially only radioactivity close to the scintillant gives light.

PARP-1 enzyme, sequence (P09874 whole entry): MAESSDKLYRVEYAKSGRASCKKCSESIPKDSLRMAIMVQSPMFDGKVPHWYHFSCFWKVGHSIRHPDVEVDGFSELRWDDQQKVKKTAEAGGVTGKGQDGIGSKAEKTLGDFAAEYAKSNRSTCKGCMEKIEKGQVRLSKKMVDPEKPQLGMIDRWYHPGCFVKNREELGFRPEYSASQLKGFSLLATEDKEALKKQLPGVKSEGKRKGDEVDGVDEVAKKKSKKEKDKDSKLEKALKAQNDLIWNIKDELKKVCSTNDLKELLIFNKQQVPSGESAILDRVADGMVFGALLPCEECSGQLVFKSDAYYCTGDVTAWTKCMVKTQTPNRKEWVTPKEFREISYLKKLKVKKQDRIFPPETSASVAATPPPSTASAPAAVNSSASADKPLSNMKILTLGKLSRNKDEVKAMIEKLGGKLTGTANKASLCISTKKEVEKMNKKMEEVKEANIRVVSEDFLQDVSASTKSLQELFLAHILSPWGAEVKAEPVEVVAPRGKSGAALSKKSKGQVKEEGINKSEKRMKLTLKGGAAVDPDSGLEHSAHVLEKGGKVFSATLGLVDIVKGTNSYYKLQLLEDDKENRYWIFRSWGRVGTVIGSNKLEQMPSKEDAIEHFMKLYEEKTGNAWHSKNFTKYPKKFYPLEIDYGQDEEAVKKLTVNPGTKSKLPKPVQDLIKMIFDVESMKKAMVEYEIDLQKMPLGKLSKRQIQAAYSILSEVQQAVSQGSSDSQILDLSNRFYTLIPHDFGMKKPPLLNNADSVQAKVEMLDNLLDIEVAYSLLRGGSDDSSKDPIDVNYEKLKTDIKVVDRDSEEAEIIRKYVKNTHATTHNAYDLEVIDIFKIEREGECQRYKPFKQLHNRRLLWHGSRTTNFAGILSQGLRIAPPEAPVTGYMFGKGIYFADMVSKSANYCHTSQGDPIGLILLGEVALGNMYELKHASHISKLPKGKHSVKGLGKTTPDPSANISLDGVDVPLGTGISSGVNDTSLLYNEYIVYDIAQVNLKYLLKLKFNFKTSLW

In the case of `O=c1[nH]c(NCCN2CCN(c3n[nH]c(=O)c4ccccc34)CC2)nc2ccccc12` [Compound 35], the IC50 in data set [1] was 0.0107 µM. The same measure, in the same setting: in the case of `COc1cc2nc(NCCN3CCN(c4n[nH]c5ccccc45)CC3)[nH]c(=O)c2cc1OC` [Compound 32] it was 0.0452 µM.

`Oc1cccc2c(O)nccc12` [1,5-dihydroxyisoquinoline]: the reduced infarct size in data set [2] (single injection 1 mg/kg) is recorded as 38-48%. For `Cc1cccc2nc(NCCN3CCC(c4n[nH]c5cc(F)ccc45)CC3)[nH]c(=O)c12` [Compound 34], the IC50 in data set [1] was 0.0217 µM.

For the compound `NC(=O)c1cccc(N)c1` [3-amino-benzamide], the “reductions in infarct size in the heart” value in data set [2] (single injection 10 mg/kg, one minute before occlusion or one minute before reperfusion) is listed as 32-42%. Besides, the “inflammatory response, morphology and energetic status of the distal colon” value in data set [3] was “reduced the inflammatory response and restored the morphology and the energetic status of the distal colon”. With `CO[C@@H]1CN(CCCNc2nc(O)c3cc(Cl)ccc3n2)CC[C@@H]1NC(=O)c1cc(Cl)c(N)c2c1OC(C)(C)C2` [Compound 16], in data set [4], the IC50 was over 10 µM.

On to `CC1(C)Cc2cc(Cl)cc(C(=O)NC3CCN(CCCNc4nc(O)c5ccccc5n4)CC3)c2O1` [Compound 11], for which the IC50 in data set [4] was over 10 µM.

Consider `CC1(C)Cc2cc(Cl)cc(C(=O)NC3CCN(CCNc4nc(O)c5ccccc5n4)CC3)c2O1` [Compound 12], for which, in data set [4], the IC50 was over 10 µM. Take `CO[C@H]1CN(CCNc2nc(O)c3ccccc3n2)CC[C@H]1NC(=O)c1cc(Cl)cc2c1OC(C)(C)C2` [Compound 13]: in data set [4], the IC50 was over 10 µM. As to `CCc1cc2cc(CN3CCN(CCNc4nc5ccccc5c(=O)[nH]4)CC3)ccc2nc1OC` (hydrate or solvate) [Compound 3], the melting point – broadly, the temperature, or range, at which the solid turns liquid – stood at 118 °C. Consider `O=c1[nH]c(NCCN2CCN(c3n[nH]c4ccccc34)CC2)nc2ccccc12` [Compound 19], for which, in data set [4], the IC50 was over 10 µM. Same read-out and setting: to `CO[C@@H]1CN(CCCNc2nc(O)c3ccc(Cl)cc3n2)CC[C@@H]1NC(=O)c1cc(Cl)c(N)c2c1OC(C)(C)C2` [Compound 17] belongs over 10 µM.
